Tests used:
Mice = test: Acute toxicity, mice p.o. (72 hours); assay type: in vivo
Method: 1. Acute Toxicity LC50 Mice p.o. (72 hours)

[1] = prior art; cited from earlier work
[2] = prior art; cited from earlier work; remark: listed apart in the source
gastrointestinal tract = conditions: compared with the parent xanthines; prior art; cited from earlier work

| Compound | Acute Toxicity LC50 (Mice) [mg] | water solubility (in words) [1] | further results |
| --- | --- | --- | --- |
| O=C(O)c1ccccc1O [Magnesium Sailicylate, magnesium salicylate] | 1200 ± 53 | – | – |
| Cn1c(=O)c2[nH]cnc2n(C)c1=O [Theophylline anhydrous, 1, 3, dimethyl xanthine] | 460 ± 35 | – | – |
| Cn1cnc2c1c(=O)[nH]c(=O)n2C [theobromine sodium salicylate] | – | soluble | – |
| CC(=O)[O-].Cn1c(=O)c2[nH]cnc2n(C)c1=O.[Na+] [theophylline sodium acetate] | – | soluble in water | – |
| theophylline calcium salicylate | – | – | reaction in aqueous solutions or suspensions [2]: alkaline reactions; tolerance in the gastrointestinal tract (gastrointestinal tract): better tolerated |

Source: US4198507A (Hoffmann-La Roche Inc., priority 1978, dated 1980)
